Reference: patent US8906909B2 (Curis, Inc., priority 2009, dated 2014)
Blank lines part the entries; values can stand above or below the compound they belong to.

Legend:
H1993 cells = experiment: Cell proliferation assay Method A (ATPlite), H1993; type: cell-based; settings: Homo sapiens, NCI-H1993, 72 hours, read-out: antiproliferative activity IC50, H1993
Summary of the method: (§1)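 Cells seeded at 5,000–10,000 per well with graded compound concentrations and cultured 72 h in 0.5% fetal bovine serum. Growth inhibition read as cellular ATP content by firefly luciferase luminescence (ATPlite).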

H1975 cells = experiment: Cell proliferation assay Method B, H1975; type: cell-based; settings: Homo sapiens, NCI-H1975; NSCLC; Method B; 72 hours; read-out: antiproliferative activity IC50, H1975
Description: (§2) Cancer cell lines were plated at 5,000 to 10,000 per well in 96-well flat bottomed plates with various concentration of compounds. The cells were incubated with compounds for 72 hours in the presence of 0.5% of fetal bovine serum. Growth inhibition was accessed by adenosine triphosphate (ATP) content assay using Promega CellTiter-Glo kit. Promega CellTiter-Glo kit is an ATP monitoring system based on firefly luciferase. Briefly, 16 μl of mammalian cell lysis and substrate solution was added to 84 μl of culture medium per well to lyse the cells and stabilize the ATP. The mixture was shaken and incubated for 30 minutes and subsequently the luminescence was measured.

P388 D1 cells = experiment: Cell proliferation assay Method B, P388 D1; type: cell-based; settings: P388D1, Mouse Lymphoma, 72 hours, read-out: antiproliferative activity IC50, P388 D1
Description: as §2

BT-474 cells = experiment: Cell proliferation assay Method A (ATPlite), BT-474; type: cell-based; settings: Homo sapiens, 72 hours, read-out: antiproliferative activity IC50, BT-474
Summary of the method: as §1

PI3Kβ (p110β/p85α) = molecular target: T1, PI3Kβ (p110β/p85α) (Homo sapiens, UniProt P42338); experiment: PI3Kβ TR-FRET (HTRF) assay; type: biochemical; settings: 10 μM ATP
T1 construct: N-terminal histidine-tagged recombinant full-length human p110β; His tag (N); made in house; host or cells: Baculovirus-infected Sf21 insect cells
T1 sequence (P42338 whole entry): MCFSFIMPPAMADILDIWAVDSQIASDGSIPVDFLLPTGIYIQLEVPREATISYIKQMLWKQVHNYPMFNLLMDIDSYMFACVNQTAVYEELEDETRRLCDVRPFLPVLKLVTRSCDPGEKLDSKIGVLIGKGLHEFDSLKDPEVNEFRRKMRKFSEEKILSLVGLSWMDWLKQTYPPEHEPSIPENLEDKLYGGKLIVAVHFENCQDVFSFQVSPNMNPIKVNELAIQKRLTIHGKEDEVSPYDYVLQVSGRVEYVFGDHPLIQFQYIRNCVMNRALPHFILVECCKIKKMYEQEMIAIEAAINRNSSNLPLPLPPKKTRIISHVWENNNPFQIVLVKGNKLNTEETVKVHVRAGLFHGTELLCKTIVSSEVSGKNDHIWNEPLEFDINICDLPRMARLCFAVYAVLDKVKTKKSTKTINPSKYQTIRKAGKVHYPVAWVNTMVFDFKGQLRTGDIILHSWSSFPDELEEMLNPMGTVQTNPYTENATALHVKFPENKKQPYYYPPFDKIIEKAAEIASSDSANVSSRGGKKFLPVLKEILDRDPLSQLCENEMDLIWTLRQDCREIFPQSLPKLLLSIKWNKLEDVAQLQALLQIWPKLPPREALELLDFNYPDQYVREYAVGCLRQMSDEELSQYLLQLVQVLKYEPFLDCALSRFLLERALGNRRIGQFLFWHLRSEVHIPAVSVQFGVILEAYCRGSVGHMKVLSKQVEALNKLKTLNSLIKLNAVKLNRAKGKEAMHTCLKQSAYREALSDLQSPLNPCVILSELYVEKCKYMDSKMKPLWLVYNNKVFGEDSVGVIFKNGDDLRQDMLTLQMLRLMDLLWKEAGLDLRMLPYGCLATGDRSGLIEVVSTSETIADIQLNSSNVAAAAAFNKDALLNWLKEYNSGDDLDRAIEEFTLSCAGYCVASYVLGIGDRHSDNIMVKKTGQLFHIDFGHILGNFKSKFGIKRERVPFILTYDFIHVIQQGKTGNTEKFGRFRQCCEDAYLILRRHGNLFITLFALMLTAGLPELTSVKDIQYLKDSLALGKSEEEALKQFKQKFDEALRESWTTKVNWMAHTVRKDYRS
T1 sequence (P27986 whole entry partner): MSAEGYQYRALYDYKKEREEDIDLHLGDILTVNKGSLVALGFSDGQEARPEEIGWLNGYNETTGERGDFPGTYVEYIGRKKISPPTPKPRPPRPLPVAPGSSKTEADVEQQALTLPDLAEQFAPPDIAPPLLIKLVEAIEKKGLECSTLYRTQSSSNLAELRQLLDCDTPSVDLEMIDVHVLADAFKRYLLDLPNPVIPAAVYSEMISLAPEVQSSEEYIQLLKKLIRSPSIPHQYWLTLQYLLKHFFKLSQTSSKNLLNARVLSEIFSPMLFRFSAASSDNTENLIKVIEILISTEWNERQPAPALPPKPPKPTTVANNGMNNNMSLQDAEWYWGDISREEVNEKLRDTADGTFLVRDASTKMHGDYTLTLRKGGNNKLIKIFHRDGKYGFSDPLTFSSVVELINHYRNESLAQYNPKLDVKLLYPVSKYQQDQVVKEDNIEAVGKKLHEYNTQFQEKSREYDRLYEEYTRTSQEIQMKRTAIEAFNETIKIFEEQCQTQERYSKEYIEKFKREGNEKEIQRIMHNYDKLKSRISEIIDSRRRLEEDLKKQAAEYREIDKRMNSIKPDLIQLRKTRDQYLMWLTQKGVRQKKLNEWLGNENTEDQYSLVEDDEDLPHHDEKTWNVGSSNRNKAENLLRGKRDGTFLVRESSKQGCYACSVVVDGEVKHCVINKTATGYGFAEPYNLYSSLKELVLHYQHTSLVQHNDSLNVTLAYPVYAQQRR
Description: Activity of PI3Kβ was measured using time-resolved fluorescence resonance energy transfer (TR-FRET) assay utilizing homogenous time resolved fluorescence (HTRF) technology. PI3Kβ, a complex of N-terminal histidine-tagged recombinant full-length human p110β and untagged recombinant full length human p85α were coexpressed in a Baculovirus infected Sf21 cell expression system. (GenBank Accession No. for p110β, NM—006219; for p85α, XM—043865) The proteins are purified by one-step affinity chromatography using glutathione-agarose. A competition assay was performed to measure the amount of PIP3 generated from PIP2 in the presence of purified recombinant PI3 Kbeta (p110β/p85α). PI3Kβ was incubated with 10 μM PIP2 substrate in the reaction buffer (20 mM HEPES, pH 7.5, 10 mM NaCl, 4 mM MgCl2, 2 mM DTT, 10 μM ATP and 1% DMSO) for 30 minutes at 30° C. The reaction product was then mixed with a PIP3 detector protein, europium-labeled antibody, biotin-labeled PIP3 probe and allophycocyanin-labeled Streptavidin. A sensor complex is formed to generate a stable TR-FRET signal in the reaction mixture. This signal intensity decrease as biotin-labeled probe binding to the PIP3 detector is displaced by PIP3 produced by enzymatic activity and the amount of unbound biotin-labeled PIP3 probe in the mixture increases. TR-FRET signal was determined using microplate reader with background subtraction.

MOLT-4 cells = experiment: Cell proliferation assay Method B, MOLT-4; type: cell-based; settings: Homo sapiens, ALL, 72 hours, read-out: antiproliferative activity IC50, MOLT-4
Description: as §2

PI3Kδ (p110δ/p85α) = molecular target: T2, PI3Kδ (p110δ/p85α) (Homo sapiens, UniProt O00329); experiment: PI3Kδ fluorescence polarization assay; type: biochemical; settings: 10 μM ATP
T2 construct: N-terminal histidine-tagged recombinant full-length human p110δ; His tag (N); made in house; host or cells: Baculovirus-infected Sf9 insect cells
T2 sequence (O00329 whole entry): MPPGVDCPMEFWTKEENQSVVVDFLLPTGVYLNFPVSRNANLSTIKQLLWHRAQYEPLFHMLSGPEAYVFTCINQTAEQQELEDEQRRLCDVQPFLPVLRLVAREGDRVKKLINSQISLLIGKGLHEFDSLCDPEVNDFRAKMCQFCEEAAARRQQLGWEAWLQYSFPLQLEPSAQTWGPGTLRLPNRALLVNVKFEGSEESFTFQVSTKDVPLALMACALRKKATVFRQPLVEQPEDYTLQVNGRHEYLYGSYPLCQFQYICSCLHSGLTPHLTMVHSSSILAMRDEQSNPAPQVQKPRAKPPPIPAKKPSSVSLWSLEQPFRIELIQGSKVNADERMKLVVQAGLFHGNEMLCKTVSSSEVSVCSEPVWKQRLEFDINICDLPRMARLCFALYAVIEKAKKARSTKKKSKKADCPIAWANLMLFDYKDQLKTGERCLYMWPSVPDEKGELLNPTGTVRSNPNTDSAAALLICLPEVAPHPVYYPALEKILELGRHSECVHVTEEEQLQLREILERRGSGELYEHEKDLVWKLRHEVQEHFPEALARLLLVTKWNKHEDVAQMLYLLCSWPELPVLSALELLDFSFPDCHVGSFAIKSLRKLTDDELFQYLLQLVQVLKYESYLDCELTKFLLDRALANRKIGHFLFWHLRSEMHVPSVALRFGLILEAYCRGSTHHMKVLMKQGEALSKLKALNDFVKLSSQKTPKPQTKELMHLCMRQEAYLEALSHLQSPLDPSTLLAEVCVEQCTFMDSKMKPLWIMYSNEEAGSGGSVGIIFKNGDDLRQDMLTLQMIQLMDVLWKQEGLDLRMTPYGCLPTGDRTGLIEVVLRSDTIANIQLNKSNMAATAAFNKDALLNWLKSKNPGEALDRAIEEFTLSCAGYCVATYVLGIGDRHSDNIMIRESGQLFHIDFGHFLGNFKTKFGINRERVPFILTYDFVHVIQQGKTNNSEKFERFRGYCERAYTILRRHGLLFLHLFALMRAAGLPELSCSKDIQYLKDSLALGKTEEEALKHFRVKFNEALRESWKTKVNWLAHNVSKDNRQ
T2 sequence (P27986 whole entry partner): as the sequence (P27986 whole entry partner) above
Description: The proteins are purified by one-step affinity chromatography using glutathione-agarose. […] The reaction product was then mixed with a PIP3 detector protein and the fluorescent PIP3 probe. Polarization (mP) values decrease as fluorescent probe binding to the PIP3 detector is displaced by PIP3 produced by enzymatic activity and the amount of unbound fluorescent probe in the mixture increases. Polarization degrees (mP) value was determined using microplate reader with background subtraction.

Sk-Mel-28 cells = experiment: Cell proliferation assay Method A (ATPlite), Sk-Mel-28; type: cell-based; settings: Homo sapiens, 72 hours, read-out: antiproliferative activity IC50, Sk-Mel-28
Summary of the method: as §1

MDA-MB-468 cells = experiment: Cell proliferation assay Method B, MDA-MB-468; type: cell-based; settings: Homo sapiens, Breast, Method B, 72 hours, read-out: antiproliferative activity IC50, MDA-MB-468
Summary of the method: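 Seeding density 5,000–10,000 cells/well; compound incubation 72 h; 0.5% FBS; endpoint luminescence of cellular ATP after 30 min with lysis/substrate reagent.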

ZR-75-1 cells = experiment: Cell proliferation assay Method B, ZR-75-1; type: cell-based; settings: Homo sapiens, Breast, 72 hours, read-out: antiproliferative activity IC50, ZR-75-1
Description: as §2

H358 cells = experiment: Cell proliferation assay Method B, H358; type: cell-based; settings: Homo sapiens, NCI-H358, NSCLC, 72 hours, read-out: antiproliferative activity IC50, H358
Description: as §2

PC-3 cells = experiment: Cell proliferation assay Method B, PC-3; type: cell-based; settings: Homo sapiens, Prostate, 72 hours, read-out: antiproliferative activity IC50, PC-3
Description: as §2

MiaPaca1 cells = experiment: Cell proliferation assay Method B, MiaPaca1; type: cell-based; settings: Pancreas, 72 hours, read-out: antiproliferative activity IC50, MiaPaca1
Description: as §2

H460 cells = experiment: Cell proliferation assay Method B, H460; type: cell-based; settings: Homo sapiens, NCI-H460, NSCLC, 72 hours, read-out: antiproliferative activity IC50, H460
Description: as §2

WiDr cells = experiment: Cell proliferation assay Method B, WiDr; type: cell-based; settings: Homo sapiens, Colon, 72 hours, read-out: antiproliferative activity IC50, WiDr
Description: as §2

SW403 cells = experiment: Cell proliferation assay Method B, SW403; type: cell-based; settings: Homo sapiens, SW-403, Colon, 72 hours, read-out: antiproliferative activity IC50, SW403
Description: as §2

H292 cells = experiment: Cell proliferation assay Method B, H292; type: cell-based; settings: Homo sapiens, NCI-H292, NSCLC, 72 hours, read-out: antiproliferative activity IC50, H292
Description: as §2

CFPAC-1 cells = experiment: Cell proliferation assay Method B, CFPAC-1; type: cell-based; settings: Homo sapiens, Pancreas, 72 hours, read-out: antiproliferative activity IC50, CFPAC-1
Description: as §2

HCT116 cells = experiment: Cell proliferation assay Method B, HCT116; type: cell-based; settings: Homo sapiens, HCT-116, Colon, 72 hours, read-out: antiproliferative activity IC50, HCT116
Description: as §2

PANC-1 cells = experiment: Cell proliferation assay Method B, PANC-1; type: cell-based; settings: Homo sapiens, Pancreas, 72 hours, read-out: antiproliferative activity IC50, PANC-1
Description: as §2

Calu6 cells = experiment: Cell proliferation assay Method B, Calu6; type: cell-based; settings: Homo sapiens, Calu-6, NSCLC, 72 hours, read-out: antiproliferative activity IC50, Calu6
Description: as §2

H2122 cells = experiment: Cell proliferation assay Method B, H2122; type: cell-based; settings: Homo sapiens, NCI-H2122, NSCLC, 72 hours, read-out: antiproliferative activity IC50, H2122
Description: as §2

CaPan2 cells = experiment: Cell proliferation assay Method B, CaPan2; type: cell-based; settings: Homo sapiens, Capan-2, Pancreas, 72 hours, read-out: antiproliferative activity IC50, CaPan2
Description: as §2

IC50 (H1993 cells): < 0.1 µM
IC50 (H1975 cells): < 0.01 µM
IC50 (P388 D1 cells): < 0.01 µM
IC50 (BT-474 cells): < 0.1 µM
IC50 (PI3Kβ (p110β/p85α)): < 0.1 µM
IC50 (MOLT-4 cells): < 0.01 µM
IC50 (PI3Kδ (p110δ/p85α)): < 0.1 µM
IC50 (MDA-MB-468 cells): 0.01 to 0.1 µM
SMILES: CN(Cc1cc2nc(-c3ccc(N)cc3)nc(N3CCOCC3)c2s1)c1ncc(C(=O)NO)cn1 [Compound 150, 2-(((2-(4-aminophenyl)-4-morpholinothieno[3,2-d]pyrimidin-6-yl)methyl)(methyl)amino)-N-hydroxypyrimidine-5-carboxamide]
IC50 (Sk-Mel-28 cells): < 0.1 µM
IC50 (ZR-75-1 cells): 0.01 to 0.1 µM

SMILES: CS(=O)(=O)N1CCN(Cc2cc3nc(-c4cccc5[nH]ncc45)nc(N4CCOCC4)c3s2)CC1 [GDC-0941, reference compound]
IC50 (H1975 cells): 0.1 to 1 µM
IC50 (H358 cells): 1 to 10 µM
IC50 (PC-3 cells): 1 to 10 µM
IC50 (P388 D1 cells): 1 to 10 µM
IC50 (MiaPaca1 cells): > 10 µM
IC50 (MOLT-4 cells): 0.1 to 1 µM
IC50 (H460 cells): > 10 µM
IC50 (WiDr cells): > 10 µM
IC50 (SW403 cells): > 10 µM
IC50 (H292 cells): 1 to 10 µM
IC50 (CFPAC-1 cells): > 10 µM
IC50 (HCT116 cells): 1 to 10 µM
IC50 (PANC-1 cells): 1 to 10 µM
IC50 (Calu6 cells): > 10 µM
IC50 (H2122 cells): 1 to 10 µM
IC50 (CaPan2 cells): > 10 µM
IC50 (ZR-75-1 cells): 0.1 to 1 µM
